Source: patent publication US20170050962A1, “IMIDAZO[1,2-A]PYRIDINES AS STIMULATORS OF SOLUBLE GUANYLATE CYCLASE FOR TREATING CARDIOVASCULAR DISEASES” (BAYER PHARMA AKTIENGESELLSCHAFT, priority 2014, published 2017)

system: recombinant guanylate cyclase reporter cell line; assay: Effect on a recombinant guanylate cyclase reporter cell line; type: cell-based; conditions: in some cases mean values for individual determinations
Description: B-2. Effect on a Recombinant Guanylate Cyclase Reporter Cell Line
The cellular activity of the compounds according to the invention is determined using a recombinant guanylate cyclase reporter cell line, as described in F. Wunder et al., Anal. Biochem. 339, 104-112 (2005).
Representative MEC values (MEC=minimum effective concentration) for the compounds of the invention are shown in the table below (in some cases as mean values for individual determinations): […]

SMILES	MEC (minimum effective concentration) [µM]
Cc1cc(OCc2c(F)cccc2F)c2nc(C)c(C3=CC(=NO)CC(C)(C)N3)n2c1 (stereo in doubt) [Example 5, (4E)-6-{8-[(2,6-Difluorobenzyl)oxy]-2,6-dimethylimidazo[1,2-a]pyridin-3-yl}-N-hydroxy-2,2-dimethyl-2,3-dihydropyridine-4(1H)-imine]	0.03
Cc1cc(OCc2c(F)cccc2F)c2nc(C)c(-c3ccc(=O)n(CC(C)(C)N)c3)n2c1 [Example 1, 1-(2-Amino-2-methylpropyl)-5-{8-[(2,6-difluorobenzyl)oxy]-2,6-dimethylimidazo[1,2-a]pyridin-3-yl}pyridin-2(1H)-one]	1.0
Cc1cc(OCc2c(F)cccc2F)c2nc(C)c(-c3ccc(OCC(C)(C)N)nc3)n2c1 [Example 2, 1-[(5-{8-[(2,6-Difluorobenzyl)oxy]-2,6-dimethylimidazo[1,2-a]pyridin-3-yl}pyridin-2-yl)oxy]-2-methylpropan-2-amine]	0.3
Cc1cc(OCc2c(F)cccc2F)c2nc(C)c(-c3ccn(CC(C)(C)N)c(=O)c3)n2c1 [Example 3, 1-(2-Amino-2-methylpropyl)-4-{8-[(2,6-difluorobenzyl)oxy]-2,6-dimethylimidazo[1,2-a]pyridin-3-yl}pyridin-2(1H)-one]	1.0
Cc1cc(OCc2c(F)cccc2F)c2nc(C)c(-c3ccnc(OCC(C)(C)N)c3)n2c1 [Example 4, 1-[(4-{8-[(2,6-Difluorobenzyl)oxy]-2,6-dimethylimidazo[1,2-a]pyridin-3-yl}pyridin-2-yl)oxy]-2-methylpropan-2-amine]	0.03
Cc1cc(OCc2c(F)cccc2F)c2nc(C)c(-c3nc(OCC(C)(C)N)n[nH]3)n2c1 [Example 6, 1-[(5-{8-[(2,6-Difluorobenzyl)oxy]-2,6-dimethylimidazo[1,2-a]pyridin-3-yl}-1H-1,2,4-triazol-3-yl)oxy]-2-methylpropan-2-amine]	3.0
Cc1cc(OCc2c(F)cccc2F)c2nc(C)c(-c3cc[nH]c(=O)c3)n2c1 [Example 8, 4-{8-[(2,6-Difluorobenzyl)oxy]-2,6-dimethylimidazo[1,2-a]pyridin-3-yl}pyridin-2(1H)-one]	1.0
